Measured values from publication PMC4947980 (Journal of Medicinal Chemistry, 2016).
Values after ≈ are worked out from the molar mass of the structure shown. Values joined by “and” are separate entries in the source; they are usually repeats but may differ in a detail not shown here. Equal values may be shown once.

Legend:
[1] = test system: nonreplicating M. tuberculosis; test: microbe, parasite or virus in culture; assay type: cell-based, Mycobacterium tuberculosis mc^26220 (ΔpanCDΔlysA); settings: for activity against nonreplicating M. tuberculosis, in words: multistress nonreplicating model; for NR-MIC90 3 days OD580 = 0.01 / NR-MIC90 3 days OD580 = 0.1: 3 days exposure
[2] = test system: replicating M. tuberculosis; test: MIC90 against replicating M. tuberculosis; assay type: cell-based, Mycobacterium tuberculosis mc^26220 (ΔpanCDΔlysA); settings: for activity against replicating M. tuberculosis on addition of clavulanate: data not shown; for R-MIC90 3 days OD580 = 0.01: replicating
[3] = Parallel artificial membrane permeability assay; assay type: in vitro ADME
Solubility at pH 7.4 = assay type: physicochemical; settings: after shaking at room temperature for 4 h
Plasma stability, mouse = settings: 1 μg/mL, 37 °C, parent ion monitored
[4] = Hydrolytic stability at pH 2, 7 and 12; assay type: physicochemical; settings: percent remaining after a 4 h incubation at 37 °C
[5] = Stability in cell-free PBS and nonreplicating medium; assay type: physicochemical; settings: day 6; for d6: % remaining in PBS: cell-free PBS pH 7.4, 37 °C; for d6: % remaining NR medium + 0.5 mM NaNO2: cell-free nonreplicating medium pH 5.0 with 0.5 mM NaNO2, 37 °C; for d6: % remaining NR medium: cell-free nonreplicating medium pH 5.0 without NaNO2, 37 °C
[6] = test system: intracellular M. tuberculosis; settings: for CFU reduction of intracellular M. tuberculosis: IFNγ-activated macrophages, 100 μg/mL, 4 days (1) or 3 days (5)
[7] = test system: nonreplicating wild-type M. tuberculosis; assay type: cell-based, Mycobacterium tuberculosis H37Rv; settings: for bactericidal activity against nonreplicating wild-type M. tuberculosis (Figure S2): in words
[8] = test system: nonreplicating M. tuberculosis; test: Charcoal agar resazurin assay; assay type: cell-based; settings: for dose-dependent decrease of CARA fluorescence, effect of NaNO2: with or without 0.5 mM NaNO2, 7 days, OD580 0.1 or 0.01
[9] = Mouse liver microsomal stability; assay type: in vitro ADME; settings: assayed at 0-60 min
M. tuberculosis = settings: cited from earlier work
[10] = Human liver microsomal stability; assay type: in vitro ADME; settings: liver microsomes, human liver microsomes t1/2, assayed at 0-60 min
[11] = nonreplicating, 6 days exposure

Compound: CC1=C(c2nc(C)no2)N2C(=O)[C@@H](NC(=O)[C@H](N)c3ccccc3)[C@H]2SC1 [4c]
- activity against nonreplicating M. tuberculosis, in words [1]: poorly active
- activity against replicating M. tuberculosis, in words [2]: completely inactive

Compound: CCCOC(=O)C1=C(C)CS[C@@H]2[C@H](NC(=O)COc3ccccc3)C(=O)N12 [compound 1, Propyl (6R,7R)-3-Methyl-8-oxo-7-(2-phenoxyacetamido)-5-thia-1-azabicyclo[4.2.0]oct-2-ene-2-carboxylate]
- PAMPA log Pe [3]: –5.15
- solubility (Solubility at pH 7.4): 22.7 µM (≈ 8.86 µg/mL)
- solubility at 4 h (Solubility at pH 7.4; pH 7.4, solubility): 23 µM (≈ 8.98 µg/mL)
- stability in mouse plasma (time to complete transformation) (Plasma stability, mouse): < 5 min
- NR-MIC90 3 days OD580 = 0.01 ([1]; nonreplicating, OD580 = 0.01): 0.90 µg/mL
- NR-MIC90 3 days OD580 = 0.1 ([1]; nonreplicating): 1.76 µg/mL
- NR-MIC90 6 days OD580 = 0.01 ([1]; nonreplicating, 6 days exposure, OD580 = 0.01): 0.64 µg/mL
- NR-MIC90 6 days OD580 = 0.1 [1, 11]: 1.05 µg/mL
- pH 2 stability [4]: 100% and 110%
- pH 12 stability [4]: 0.000%
- d6: % remaining in PBS [5]: stable
- d6: % remaining NR medium + 0.5 mM NaNO2 [5]: stable
- d6: % remaining NR medium [5]: stable
- CFU reduction of intracellular M. tuberculosis [6]: 1–2 log10
- concentration that reduced colony-forming units by 2 log10 [7]: 0.7–0.8 μg/mL
- enhancement of activity by nitrite ([8]; CARA, OD580 0.01, 0.5 mM NaNO2): 32- to 64 fold
- dose-dependent decrease of CARA fluorescence, effect of NaNO2 [8]: strongly enhanced by the addition of NaNO2
- mouse liver microsomes t1/2 [9]: rapidly metabolized
- activity against replicating M. tuberculosis on addition of clavulanate ([2]; addition of clavulanate): did not lead to activity
- R-MIC90 3 days OD580 = 0.01 [2]: >100 µg/mL

Compound: CCCc1noc(C2=C(C)CS[C@@H]3[C@H](NC(=O)CCc4ccc(OC)cc4)C(=O)N23)n1 [21b]
- bactericidal activity against nonreplicating wild-type M. tuberculosis (Figure S2) [7]: bactericidal

Compound: CCOC(=O)C1=C(C)CS[C@@H]2[C@H](NC(=O)CCc3ccc(OC)cc3)C(=O)N12 [12i]
- bactericidal activity against nonreplicating wild-type M. tuberculosis (Figure S2) [7]: bactericidal

Compound: CCCN[C@@H]1C(=O)N2C(C(=O)OCCC)=C(C)CS[C@H]12 [compound 3]
- activity against nonreplicating M. tuberculosis, in words [1]: significant activity
- NR-MIC90 3 days OD580 = 0.01 ([1]; nonreplicating, OD580 = 0.01): 0.7 µg/mL
- NR-MIC90 3 days OD580 = 0.1 ([1]; nonreplicating): 2.69 µg/mL
- NR-MIC90 6 days OD580 = 0.1 [1, 11]: 0.45 µg/mL
- d6: % remaining NR medium + 0.5 mM NaNO2 [5]: unstable
- activity against replicating M. tuberculosis on addition of clavulanate ([2]; addition of clavulanate): did not lead to activity
- R-MIC90 3 days OD580 = 0.01 [2]: >100 µg/mL

Compound: CCCOC(=O)C1=C(C)CS[C@@H]2[C@H](NC(=O)[C@H](N)c3ccccc3)C(=O)N12 [4b]
- MIC90 ([1]; Mycobacterium tuberculosis, read-out: NR d7 OD=0.1 MIC90): 15.5 µg/mL (≈ 39.8 µM)

Compound: CC1=C(c2nc(C)no2)N2C(=O)[C@@H](NC(=O)OCC(Cl)(Cl)Cl)[C@H]2SC1 [19d]
- bactericidal activity against nonreplicating wild-type M. tuberculosis (Figure S2) [7]: bactericidal

Compound: C[C@@H](O)[C@H]1C(=O)N2C(C(=O)O)=C([C@H]3CCCO3)S[C@H]12 [faropenem, reference compound]
- activity against nonreplicating M. tuberculosis, in words [1]: inactive
- killing of replicating and nongrowing M. tuberculosis (M. tuberculosis): kill both replicating and nongrowing M. tuberculosis

Compound: COCC1=C(C)CS[C@@H]2[C@H](NC(=O)COc3ccccc3)C(=O)N12 [compound 10]
- activity against nonreplicating M. tuberculosis, in words [1]: inactive

Compound: CCCOC(=O)N[C@@H]1C(=O)N2C(C(=O)OCCC)=C(C)CS[C@H]12 [compound 2]
- NR-MIC90 3 days OD580 = 0.01 ([1]; nonreplicating, OD580 = 0.01): 3.11 µg/mL
- NR-MIC90 3 days OD580 = 0.1 ([1]; nonreplicating): 2.61 µg/mL
- NR-MIC90 6 days OD580 = 0.1 [1, 11]: 0.52 µg/mL
- d6: % remaining in PBS [5]: stable
- d6: % remaining NR medium + 0.5 mM NaNO2 [5]: stable
- d6: % remaining NR medium [5]: stable
- activity against replicating M. tuberculosis on addition of clavulanate ([2]; addition of clavulanate): did not lead to activity
- R-MIC90 3 days OD580 = 0.01 [2]: 55.44 µg/mL

Compound: CCCc1noc(C2=C(C)CS[C@@H]3[C@H](NC(=O)COc4ccc(Cl)cc4)C(=O)N23)n1 [22c]
- bactericidal activity against nonreplicating wild-type M. tuberculosis (Figure S2) [7]: bactericidal

Compound: CCCCOC(=O)C1=C(C)CS[C@@H]2[C@H](NC(=O)CCc3ccccc3)C(=O)N12 [12e]
- bactericidal activity against nonreplicating wild-type M. tuberculosis (Figure S2) [7]: bactericidal

Compound: COC(=O)C1=C(C)CS[C@@H]2[C@H](NC(=O)[C@H](N)c3ccccc3)C(=O)N12 [4a]
- activity against nonreplicating M. tuberculosis, in words [1]: poorly active
- activity against replicating M. tuberculosis, in words [2]: completely inactive

Compound: C[C@@H](O)[C@H]1C(=O)N2C(C(=O)O)=C(S[C@@H]3CN[C@H](C(=O)N(C)C)C3)[C@H](C)[C@H]12 [Meropenem, reference compound]
- enhancement of replicating MIC90 by clavulanate ([2]; addition of clavulanate): 4 fold

Compound: CC1=C(c2nc(C)no2)N2C(=O)[C@@H](NC(=O)COc3ccc(Cl)cc3)[C@H]2SC1 [18d]
- bactericidal activity against nonreplicating wild-type M. tuberculosis (Figure S2) [7]: bactericidal

Compound: CCCc1noc(C2=C(C)CS[C@@H]3[C@H](NC(=O)c4ccc(Cl)cc4)C(=O)N23)n1 [compound 23]
- bactericidal activity against nonreplicating wild-type M. tuberculosis (Figure S2) [7]: bactericidal

Compound: CC1=C(c2nc(C)no2)N2C(=O)[C@@H](NC(=O)COc3ccccc3)[C@H]2SC1 [compound 5, N-((6R,7R)-3-Methyl-2-(3-methyl-1,2,4-oxadiazol-5-yl)-8-oxo-5-thia-1-azabicyclo[4.2.0]oct-2-en-7-yl)-2-phenoxyacetamide]
- PAMPA log Pe [3]: –4.87
- solubility (Solubility at pH 7.4): 83.7 µM (≈ 32.3 µg/mL)
- stability in mouse plasma (time to complete transformation) (Plasma stability, mouse): < 5 min
- pH 2 stability [4]: 100%
- pH 12 stability [4]: 0.000%
- d6: % remaining NR medium + 0.5 mM NaNO2 [5]: stable
- half-life [10]: ~1.33 h
- CFU reduction of intracellular M. tuberculosis [6]: 1–2 log10
- IFNγ dependence of bactericidal activity against intracellular M. tuberculosis ([6]; macrophages activated or not with 50 ng/mL IFNγ): strictly IFNγ dependent
- concentration that reduced colony-forming units by 2 log10 [7]: 0.7–0.8 μg/mL
- bactericidal activity against nonreplicating wild-type M. tuberculosis (Figure S2) [7]: bactericidal
- dose-dependent decrease of CARA fluorescence, effect of NaNO2 [8]: strongly enhanced by the addition of NaNO2
- mouse liver microsomes t1/2 [9]: rapidly metabolized

Compound: CC1=C(C(=O)O)N2C(=O)[C@@H](NC(=O)[C@H](N)c3ccccc3)[C@H]2SC1 [cephalexin 4, cephalexin, reference compound]
- activity against nonreplicating M. tuberculosis, in words [1]: inactive
- NR-MIC90 3 days OD580 = 0.01 ([1]; nonreplicating, OD580 = 0.01): 97.93 µg/mL
- NR-MIC90 3 days OD580 = 0.1 ([1]; nonreplicating): 61.35 µg/mL
- NR-MIC90 6 days OD580 = 0.1 [1, 11]: 70.42 µg/mL
- R-MIC90 3 days OD580 = 0.01 [2]: 33.99 µg/mL
